From paper PMC10334471, “Tumor-targeted dual-action NSAID-platinum(IV) anticancer prodrugs” (Inorganic Chemistry Frontiers, 2023)

What was measured:
RKO = test: MTT assay, 72 h, RKO; format: cell-based; conditions: 72 h treatment, mean ± SD
Protocol: (§1) All cell cultures were grown at 37 °C in a humidified atmosphere containing 5% CO2. HCT116, RKO and HT-29 cells were cultured in McCoy's 5A Modified Media (Sigma-Aldrich, St. Louis, MO, USA) supplemented with 10% heat-inactivated fetal calf serum (FCS, PAA, Linz, Austria) and 2 mM glutamine (Sigma-Aldrich, St. Louis, MO, USA). The murine (Balb/c) colon cancer cell model CT26 (purchased from American Type Culture Collection, Manassas, VA, USA) were cultured in DMEM/F12 supplemented with 10% fetal calf serum (FCS). SW480 and Caco-2 cells were cultured in MEME media supplemented with 10% and 20% FCS, respectively. All cell culture media and reagents were purchased from Sigma-Aldrich Austria. […] The cells were regularly checked for Mycoplasma contamination.
(§2) Depending on their proliferation rate, cells were seeded at a density of 3500–5000 cells per well in 96-well microtiter plates and allowed to adhere overnight. […] Cell viability was determined using the 3-(4,5-dimethylthiazol-2-yl)-2,5-diphenyltetrazolium bromide (MTT) assay (EZ4U, Biomedia, Vienna, Austria) according to the manufacturer's recommendation. Depending on the metabolic capacity, the cell lines were incubated between one and three hours at 37 °C and subsequently absorbance was measured at 450 nm (620 nm as a reference) with a Tecan Reader infinite® M200Pro (Tecan Group Ltd, Switzerland). Data were analyzed using Graph Pad prism (version 8.0.1) by using the point-to-point function. […] Following, dose–response curves were calculated using the point-to-point function.

CT26 (murine) = test: MTT assay, 72 h, CT26; format: cell-based; conditions: 72 h treatment, mean ± SD
Protocol: as §1, §2

SW480 = test: MTT assay, 72 h, SW480; format: cell-based; conditions: 72 h treatment, mean ± SD
Protocol: as §1, §2

HT-29 = test: MTT assay, 72 h, HT-29; format: cell-based; conditions: HT-29, MTT, 72 h treatment, mean ± SD
Protocol: as §1, §2

HCT116 = test: MTT assay, 72 h, HCT116; format: cell-based; conditions: mean ± SD
Protocol: as §1, §2

HCT116/OxR = test: MTT assay, 72 h, HCT116/OxR (oxaliplatin-resistant); format: cell-based; conditions: mean ± SD
Protocol: as §1, §2

[1] = Stability in aqueous buffer pH 7.4 (HPLC); format: physicochemical; conditions: for Stability in aqueous solution: 1 mM, 250 mM phosphate buffer pH 7.4, 20 °C, 25 h, HPLC
Protocol: (§3) Phosphate buffer (250 mM, pH 7.4) containing 1 mM platinum compound was incubated at 20 °C, with and without the addition of 10 eq. L-ascorbic acid. […] A gradient of 5–95% over 5 minutes was used. To evaluate the current state of the reaction, the peak area of the parental complex was used.

[2] = Reduction kinetics with 10 eq. ascorbic acid (UHPLC); format: physicochemical
Protocol: as §3

Caco-2 = test: MTT assay, 72 h, Caco-2; format: cell-based; conditions: Caco-2, MTT, 72 h treatment, mean ± SD
Protocol: as §1, §2

CT26 allografts [3] = test: Oral anticancer activity in CT26 allografts; format: in vivo, Balb/c mice
Protocol: It is well known that COX-2 is involved in the paracrine signaling between immune cells, resulting in a pro-tumorigenic tumor microenvironment.[10,33] Consequently, we got interested in the impact of the Asa ligand on the anticancer activity of the drugs in vivo. […] As Asa is clinically applied p.o., we tested the efficacy of OxAsaOAc and asplatin in an oral application setting. […] For the therapy experiment, the animals were treated with OxAsaOAc and asplatin for five subsequent days over two weeks.
(§4) All experiments were executed according to the regulation of the Ethics Committee for the Care and Use of Laboratory Animals at the Medical University Vienna. 8–12 weeks old BALB/c were kept in a pathogen-free environment with a 12 h light dark-cycle with ad libitum access to food and water. Every procedure was performed in a laminar airflow under sterile condition. Tumor growth and possible side effects of drug treatment were evaluated by daily recording the tumor size by caliper measurement according to the formula length × width^2/2 and parameters of the animal's overall health conditions.

[4] = Serum levels and organ distribution of platinum in CT26-bearing mice (ICP-MS); format: in vivo, Balb/c mice; conditions: 24 h after single i.v. dose equimolar to 9 mg kg^−1 oxaliplatin
Protocol: CT26 cells (5 × 10^5 cells in 50 μl serum-free medium) were injected subcutaneously (s.c.) into the right flank of female BALB/c mice. […] After 24 h, the animals were anesthetized and blood was drawn. The animals were sacrificed by cervical dislocation and tumors as well as organs were collected for measurement with ICP-MS. To isolate serum and blood pellets, blood was centrifuged for 10 min at 3000 rpm. The supernatant characterized as serum was transferred to a new tube and centrifuged again to get rid of residual red blood cells.

CT26 allografts [5] = test: Anticancer activity i.v. in CT26-bearing mice; format: in vivo, Balb/c mice
Protocol: as §4
(§5) CT26 cells (5 × 10^5 cells in 50 μl serum-free medium) were injected s.c. into the right flank of female BALB/c mice. […] Asa was treated orally using 50 mg kg^−1 in 5% DMSO/0.9% NaCl. Every day, the animals were monitored for the overall health conditions. Additionally, tumor size was measured. In case of a decreased body weight of ∼20% or ulcerated tumors, animals were sacrificed by cervical dislocation and tumors as well as organs were collected.

[6] = Preliminary oral tolerability experiments in tumor-free mice; format: in vivo; conditions: p.o., equivalent to 7.5 mg kg^−1 Asa and 12.5 mg kg^−1 cisplatin
From the text: It is well known that COX-2 is involved in the paracrine signaling between immune cells, resulting in a pro-tumorigenic tumor microenvironment.[10,33] Consequently, we got interested in the impact of the Asa ligand on the anticancer activity of the drugs in vivo. Therefore, we chose immune-competent murine colon cancer CT26 allografts as test system, which were characterized by high COX-2 expression (Fig. S4 ^†). […] Thus, the experiment was stopped on day 19 due to a distinct drop in body weight in these animals. As Asa is clinically applied p.o., we tested the efficacy of OxAsaOAc and asplatin in an oral application setting. […] For the therapy experiment, the animals were treated with OxAsaOAc and asplatin for five subsequent days over two weeks. […] Consequently, we concluded that the drug doses reaching the tumor in these therapy settings were insufficient, which prompted us to aim for carrier systems with enhanced tumor-targeting properties.

[7] = Released salicylic acid in serum of mice after single i.v. administration (UHPLC-MS)
Protocol: After 10 min, 1 h and 24 h blood was collected via the facial vein. Serum was isolated by centrifugation at 900 g for 10 min for two times and stored at −80 °C. Platinum content was detected by ICP-MS measurements, using an Agilent 7800 (Agilent Technologies, Tokyo, Japan) equipped with an Agilent SPS 4 autosampler (Agilent Technologies, Tokyo, Japan) and a MicroMist nebulizer. The Agilent MassHunter software package (Workstation Software, Version C.01.04, 2018) was used for data evaluation. The ICP-MS operation parameters are given in Table S1. ^† Salicylic acid was extracted and detected as described above.

[8] = Hydrolysis of Asa spiked in fresh murine blood (HPLC-MS); conditions: after 30 min blood clotting and serum extraction
Protocol: To this end, we spiked Asa in fresh murine blood, isolated the serum, applied the extraction protocol and measured the samples via HPLC-MS.
The extraction method for acetylsalicylic acid and salicylic acid from Grobecker and coworkers was used.[26] For method validation and quantification, 99 μl mouse serum were spiked with Asa or salicylic acid dissolved in 1 μl DMSO in order to obtain a range of concentrations from 1 to 100 μM. Immediately afterwards the samples were acidified with 100 μl HCl/H3PO4 (0.1 M each) and extracted via addition of 600 μl of acetonitrile. After vigorous shaking for 1 min the suspension was stored at 4 °C for ten minutes before being centrifuged at 9500g for 10 min. The supernatant was taken up with a pipette and transferred into an Eppendorf tube with approx. 100 mg of solid NaCl. After vigorous shaking, the samples were again stored at 4 °C for 5 min and centrifuged at 9500 g for 5 min. The organic layer was taken up and measured on an Agilent 1260 Infinity II system using a Waters Acquity UPLC BEH C18 1.7 μm 3.0 × 50 mm column coupled to an Agilent InfinityLab LC/MSD mass spectrometer in negative mode. Milli-Q water, containing 0.1% formic acid, and acetonitrile containing 0.1% formic acid were used as eluents. A gradient of 5–95% acetonitrile in 6 min was used.

CT26 allografts [9] = format: in vivo; conditions: Asa 50 mg kg^−1 p.o.
Protocol: as §4, §5

albumin = molecular target: T1, albumin (Bos taurus, UniProt P02769); test: Albumin binding in fetal calf serum by SEC-ICP-MS; format: in vitro ADME; conditions: 100 μM in FCS (150 mM phosphate buffer, pH 7.4), 37 °C
T1 construct: Fetal calf serum was purchased from Sigma-Aldrich and buffered with 150 mM phosphate pH 7.4; tissue Sigma-Aldrich; host or cells: fetal calf serum
T1 sequence (P02769 25-607): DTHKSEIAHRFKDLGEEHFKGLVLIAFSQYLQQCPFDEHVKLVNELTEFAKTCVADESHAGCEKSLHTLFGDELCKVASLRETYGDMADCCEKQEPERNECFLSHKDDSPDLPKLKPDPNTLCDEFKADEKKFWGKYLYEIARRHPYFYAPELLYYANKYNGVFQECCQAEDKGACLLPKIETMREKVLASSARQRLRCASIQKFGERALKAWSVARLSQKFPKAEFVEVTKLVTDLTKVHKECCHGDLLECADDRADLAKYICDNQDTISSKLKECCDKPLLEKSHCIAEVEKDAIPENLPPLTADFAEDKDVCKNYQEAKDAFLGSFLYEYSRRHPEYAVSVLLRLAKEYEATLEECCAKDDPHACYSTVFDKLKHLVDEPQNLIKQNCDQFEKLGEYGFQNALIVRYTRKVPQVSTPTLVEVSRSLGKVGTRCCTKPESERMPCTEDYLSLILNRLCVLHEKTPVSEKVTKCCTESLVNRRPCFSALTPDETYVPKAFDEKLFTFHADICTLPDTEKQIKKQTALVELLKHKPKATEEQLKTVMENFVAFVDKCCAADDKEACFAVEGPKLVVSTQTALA
Protocol: Fetal calf serum was purchased from Sigma-Aldrich and buffered with 150 mM phosphate pH 7.4 in order to guarantee a stable pH. The platinum(IV) complexes (5 mM) were dissolved in 150 mM phosphate buffer (pH 7.4) and diluted 1 : 50 in the buffered serum to obtain a final concentration of 100 μM. The samples were then incubated in the autosampler at 37 °C and analyzed every 1 h for 6 h. Between each sample a pure water blank was measured. For SEC-ICP-MS measurements an Agilent 1260 Infinity system coupled to an Agilent 7800 ICP-MS equipped with a dynamic reaction cell was used. Oxygen (purity 5.5, Messer Austria GmbH, Gumpoldskirchen, Austria) was used as reaction gas.

[10] = Homo sapiens, HCT-116, 72 h treatment
[11] = compared to all four non-albumin-binding drugs

N.N.[Cl][Pt][Cl] [Cisplatin, cisplatin]
IC50 (RKO): 1.6 ± 0.3 µM
IC50 (CT26 (murine)): 1.2 ± 0.2 µM
IC50 (SW480): 7.8 ± 1.3 µM
IC50 (HT-29): 10.1 ± 0.3 µM
IC50 (HCT116; 72 h treatment): 3.1 ± 0.5 µM
IC50 (HCT116/OxR; 72 h treatment): 10.4 ± 1.8 µM

CC(=O)[O][Pt-2]12([O]C(C)=O)([NH2+][C@@H]3CCCC[C@H]3[NH2+]1)[O]C(=O)C(=O)[O]2 [Ox(OAc)2]
Stability in aqueous solution [1]: high stability
IC50 (RKO): 9 ± 1 µM
IC50 (CT26 (murine)): 22.5 ± 2.8 µM
IC50 (SW480): 13.2 ± 2.5 µM
IC50 (HT-29): 136 ± 34.6 µM
IC50 (HCT116; 72 h treatment): 17.4 ± 2.4 µM
Intact complex after 6 h ([2]; 1 mM, 250 mM phosphate buffer pH 7.4, 20 °C, 10 eq. ascorbic acid, 6 h): 97%
Intact complex after 24 h ([2]; 1 mM, 250 mM phosphate buffer pH 7.4, 20 °C, 10 eq. ascorbic acid, 24 h): 81%
IC50 (HCT116/OxR; 72 h treatment): > 100 µM

Cc1ccc(-c2cc(C(F)(F)F)nn2-c2ccc(S(N)(=O)=O)cc2)cc1 [Celecoxib]
IC50 (RKO; Homo sapiens): 79.3 ± 4.9 µM
IC50 (CT26 (murine); Mus musculus): 60.9 ± 2.5 µM
IC50 (SW480; Homo sapiens): 83.1 ± 1.5 µM
IC50 (HT-29; Homo sapiens): 68 ± 6.4 µM
IC50 (HCT116; [10]): 76.2 ± 4.3 µM
IC50 (HCT116/OxR; [10]): 79.2 ± 2.7 µM
IC50 (Caco-2; Homo sapiens): 79.2 ± 3.6 µM

CC(=O)Oc1ccccc1C(=O)[O][Pt]([OH])([Cl])[Cl].N.N [Asplatin]
Impact on tumor growth (CT26 allografts [3]; asplatin 20.7 mg kg^−1 p.o., five subsequent days over two weeks): none of the drugs had any impact on tumor growth
Platinum levels in liver and kidney [4]: exceptionally high
Stability in aqueous solution [1]: high stability
IC50 (RKO): 0.9 µM
IC50 (CT26 (murine)): 2.5 ± 0.2 µM
IC50 (SW480): 0.6 ± 0.1 µM
IC50 (HT-29): 9.2 ± 0.6 µM
Toxicity i.v. (CT26 allografts [5]; reason for lower i.v. dose equimolar to 3 mg kg^−1 cisplatin): high toxicity
IC50 (HCT116; 72 h treatment): 2.2 ± 0.1 µM
Remaining intact platinum(IV) complex at 1 h ([2]; 1 mM, 250 mM phosphate buffer pH 7.4, 20 °C, 10 eq. ascorbic acid, 1 h): no remaining intact platinum(IV) complex could be observed
IC50 (HCT116/OxR; 72 h treatment): 8.7 ± 1.8 µM
Oral dose that could be used (tolerability) [6]: 20.7 mg/kg
IC50 (Caco-2): 6.4 ± 1.1 µM
Free salicylic acid in serum, share of administered dose ([7]; 10 min after single i.v. dose equimolar to 9 mg kg^−1 oxaliplatin, tumor-free Balb/c mice): ~30 mol%
Salicylic acid level in serum ([7]; 24 h after single i.v. dose equimolar to 9 mg kg^−1 oxaliplatin, below LOD): < 3 µM

CC(=O)Oc1ccccc1C(=O)O [Asa, acetylsalicylic acid]
Impact on tumor growth (CT26 allografts [3]; Asa 15 mg kg^−1 p.o.): no impact on tumor growth
Hydrolysis of Asa to salicylic acid [8]: more than half of Asa was hydrolyzed to salicylic acid
Response of tumor model (tumor growth) (CT26 allografts [9]): responsiveness

CC(=O)Oc1ccccc1C(=O)[O][Pt-2]12([O]C(=O)NCCOCCOCCOCCOCCN3C(=O)C=CC3=O)([NH2+][C@@H]3CCCC[C@H]3[NH2+]1)[O]C(=O)C(=O)[O]2 [OxAsaMal, (OC-6-34)-(2-acetoxybenzoato)[(1R,2R)-1,2-cyclohexanediamino]oxalato[(14-(2,5-dioxo-2,5-dihydro-1H-pyrrol-1-yl)-3,6,9,12-tetraoxatetradecyl)carbamato]platinum(IV)]
Platinum plasma levels [4, 11]: significantly higher plasma levels
Tumor accumulation of platinum [4, 11]: higher tumor accumulation
Stability of the platinum core ([1]; phosphate-buffered saline (PBS) pH 7.4, 24 h): high stability of the platinum core
Prolonged overall survival (CT26 allografts [5]; i.v., 4-times over 2 weeks, dose equimolar to 9 mg kg^−1 oxaliplatin, CT26): ~20 days
Tolerability (body weight) (CT26 allografts [5]; i.v., 4-times over 2 weeks, doses equimolar to 9 mg kg^−1 oxaliplatin): well tolerated
Anticancer activity (tumor growth, overall survival) (CT26 allografts [5]; i.v., 4-times over 2 weeks, doses equimolar to 9 mg kg^−1 oxaliplatin, CT26): long-lasting disease control over several days
Reduction behavior (monitored by released Asa and oxaliplatin) ([2]; in the presence of ascorbic acid, comparable to OxAsaOAc): slow reduction behavior
Fraction bound to the albumin fraction (albumin; 0 h time point): 77%
Fraction bound to the albumin fraction (albumin; after 1 h): 95%
